{"source": "patent US20060264442A1", "about": "“Methods for the treatment of ocular and neurodegenerative conditions in a mammal” (Allergan, Inc., priority 2005, published 2006)", "key": {"retinal ganglion cells [1]": {"system": "retinal ganglion cells", "assay": "Partial optic nerve (ON) injury model, retinal ganglion cell count", "format": "in vivo, Sprague Dawley rats", "conditions": "for RGC survival / protective effect: count at twelve days", "method": "(§1) All procedures were conducted following AACUC protocols. Rats were anesthetized by intramuscular administration of Ketamine/Xylazine/Acepromazine/Saline cocktail, 5/2.5/1/1.5, milliliters respectively, at 1 ml/Kg.\nSprague Dawley rats weighing 300-350 g were used in this experiment. They were anesthetized with the above anesthetic cocktail and ON injury was applied. […] The tissues around the optic nerve were kept away from the optic nerve using jaw opening forceps. Calibrated forceps was put around the nerve about 3 to 4 mm from the globe and held for 30 seconds. The forceps were then removed, and the eyes treated with topical antibiotics at the site of incision. Drugs were then administered at selected doses via IP. Control animals received vehicle.\n(§2) The effect of ON injury and elevated IOP on ganglion cells was determined by evaluating ganglion cell loss in whole mounted retinas. At the end of twelve days for ON injured and three months for COHT animals the ganglion cells were labeled by retrograde transport of Dextran Tetramethyl Rhodamine (DTMR, Molecular Probes, OR). […] A longitudinal cut (<1 mm) was made at about 3-4 mm distal from the globe. The optic nerve was sectioned and DTMR crystals were applied at the cut end. Twenty four hours after labeling the animals were euthanized and the eyes enucleated and fixed for 2 hours with 4% paraformaldehyde, then the retinas were removed and whole mounted. Cell counts were done using a Nikon microscope under fluorescent light with Rhodamine filter at 400×. Eight to sixteen regions were counted. Ganglion cell loss was calculated as percentage loss compared to unlasered control. Percent protection was calculated by comparing drug treated to vehicle treated eyes. Statistical analysis was done using two-tail student's t-test."}, "retinal ganglion cells [2]": {"system": "retinal ganglion cells", "assay": "COHT model, retinal ganglion cell count", "format": "in vivo, Wistar rats", "method": "(§3) Wistar rats weighing 400-475 grams were used. The rats were anesthetized and ocular hypertension was induced by laser photocoagulation of the outflow pathway (mainly episcleral and limbal veins) using a Coherent Argon Laser (Coherent Novus 2000). The number of spots was approximately 150 after two laser treatments with one week interval. IOP was measured using Tono-Pen XL (Mentor O&O). Measurements were done prior to laser treatments to determine baseline and subsequent readings were done weekly.\nas §2"}, "[3]": {"assay": "Chronic ocular hypertension (COHT) model, IOP measurement", "format": "in vivo, Wistar rats", "conditions": "topical 0.015% twice a day for 90 days, compared to vehicle treated eyes", "method": "as §1, §3\nIn this model prazosin was tested after topical application of 0.015% twice a day for 90 days. […] The IOP level reached a steady state after 40 days and it was maintained for the rest of the experimental period."}, "[4]": {"assay": "COHT model, ERG evaluation of retinal function", "format": "in vivo, Wistar rats", "conditions": "topical 0.015% twice a day, at the end of 90 days", "method": "as §3\nElectroretinographic evaluation of the retina was done only to OHT animals. The retinal function was measured 90 days after first laser treatment and prior retinal labeling. LKC system was used with the following parameters: low and high cut filters 0.3 and 500 Hz respectively, number of runs per sample were 10, flash intensity was −30, −20, −10 and −4 dB, Notch filter was off. Data analysis including OP's extraction from flash ERG was done using the system's software and noise was filtered prior calculation. Data represents the average of 5 animals.\nAt the end of 90 days retinal function was measured using electroretinography (ERG). […] Similarly the oscillatory potential responses were also preserved by prazosin treatment (FIG. 6)."}}, "data": [{"smiles": "COc1ccccc1N1CCN(CCCNc2c(C)c(=O)n(C)c(=O)n2C)CC1", "note": "[5-methyl-Urapedil, 5-methylurapadil]", "values": [{"measurement": "RGC survival / protective effect", "setting": "retinal ganglion cells [1]; 10 μg/kg IP", "result": "no protective effect"}]}, {"smiles": "Brc1c(NC2=NCCN2)ccc2nccnc12", "note": "[Brimonidine, brimonidine]", "values": [{"measurement": "RGC protection in COHT model (comparison in words)", "setting": "retinal ganglion cells [2]; dose not given", "result": "comparable to what we have observed with Brimonidine"}, {"measurement": "RGC survival / protective effect", "setting": "retinal ganglion cells [1]; 100 μg/kg IP", "result": "protective action of Prazosine is similar to that of Brimonidine"}]}, {"smiles": "COc1cc2nc(N3CCN(C(=O)c4ccco4)CC3)nc(N)c2cc1OC", "note": "[Prazosine, prazosin]", "values": [{"measurement": "Elevation of IOP", "setting": "[3]", "result": "attenuated the elevation of IOP"}, {"measurement": "ERG A and B wave amplitudes", "setting": "[4]", "result": "In vehicle treated animals both A and B wave amplitudes were smaller than those treated with prazosin"}, {"measurement": "Oscillatory potential responses", "setting": "[4]", "result": "preserved"}, {"measurement": "Protection of RGC compared to vehicle treated group", "setting": "retinal ganglion cells [2]; 0.015% topical, three months of IOP elevation", "result": 46, "unit": "%"}, {"measurement": "RGC decrease", "setting": "retinal ganglion cells [2]; 0.015% topical, three months of IOP elevation, loss compared to unlasered control", "result": 20, "unit": "%"}, {"measurement": "RGC survival / protective effect", "setting": "retinal ganglion cells [1]; 10 μg/kg IP", "result": "almost two fold increase in RGC survival"}]}, {"smiles": "COc1cc2nc(N3CCN(C(=O)C4CCCO4)CC3)nc(N)c2cc1OC", "note": "(stereo not drawn) [Terazosine, terazosin]", "values": [{"measurement": "RGC protection", "setting": "retinal ganglion cells [1]; 0.1 μg/kg IP", "result": "Protection was observed"}, {"measurement": "RGC protection", "setting": "retinal ganglion cells [1]; 1.0 μg/kg IP", "result": "maximum effect"}, {"measurement": "RGC survival / protective effect", "setting": "retinal ganglion cells [1]; 10 μg/kg IP", "result": "no effect"}]}]}
